# Test results: PMC12797002, “Hydrophobic residues in the α‐synuclein NAC domain drive seed‐competent fibril formation and are targeted by peptide inhibitors” (The Febs Journal, 2025)
# Legend:
# αSyn = conditions: cited from earlier work
# From the text: Building on our findings that the presence of residues 8–11 in NAC peptides, corresponding to αSyn 68–71, is necessary for efficient nucleation and aggregation, we investigated whether disrupting this hydrophobic region could inhibit full‐length αSyn aggregation. Truncating these residues abolished aggregation, and peptides containing them (e.g., NAC16, NAC11) aggregated rapidly (Fig. 1). To test whether targeting this site could suppress aggregation, we selected a previously validated inhibitor peptide based on the KISVRV sequence. This segment mimics the 70–75 region of αSyn, a hydrop ...
# [1] = system: HEK293T αSyn (A53T) CFP/YFP biosensor cells; assay: Cell seeding assay (CFP/YFP inclusions, FRET flow cytometry); type: cell-based; conditions: 1 μM total or insoluble fraction, TurboFect
# From the text: HEK293T αSyn (A53T) CFP/YFP biosensor cells (HEK293T parental line, RRID:CVCL_0063) were kindly provided by Dr. Marc Diamond from the University of Texas Southwestern Medical Center (Dallas, TX, USA). The cells were not further authenticated but were routinely tested and confirmed to be mycoplasma‐free using PCR‐based assays. The cells were maintained in complete growth media consisting of 88% Dulbecco's modified Eagle's growth medium (Lonza, Walkersville, MD, USA, Cat. # 12‐604F), supplemented with 10% (v/v) fetal bovine serum (Thermo Fisher Scientific Inc., Cat. # A5256701), 10 mM HEPES (Serana Europe GmbH, Brandenburg, Germany; Cat # BSL‐001‐100ML), 1% (v/v) GlutaMAX™ Supplement (Thermo Fisher Scientific Inc., Cat. # 35050061), and 1% (v/v) Penicillin–Streptomycin Solution (Thermo Fisher Scientific Inc., Cat. # 15140130). Cells were maintained at 37 °C in a humidified incubator with 5% CO2/atmospheric air. […]
# Cells were imaged using a high‐content imaging system (Cell Voyager 7000S; Yokogawa, Tokyo, Japan) with a 20× objective. CFP/YFP inclusions of αSyn (A53T) were detected using a 488 nm laser line (Ex = 460–490 nm, Em = 500–550 nm), while Hoechst‐33 342‐stained nuclei were detected using the 405 nm laser line (Ex = 360–400 nm, Em = 410–480 nm). […]
# recombinant αSyn = assay: Effect of inhibitor peptides on αSyn aggregation (ThT, TEM, dot blot, Coomassie gel); type: biochemical, human
# Procedure: For monitoring the effect of inhibitor peptides on αSyn aggregation, recombinant αSyn was incubated with PD, PL, PB, or scrambled peptides at a 1 : 2 molar ratio (100–150 μM αSyn:200–300 μM inhibitor) in the presence of 50 μM ThT. The incubation was performed at 37 °C with constant agitation at 850 rpm in a Turbo Thermo Shaker (TMS‐200; Allsheng, Hangzhou, China). The formation of amyloid fibrils was monitored by measuring ThT fluorescence over 72 h, as described previously.
# To fractionate aggregated samples (recombinant αSyn or NAC peptides), 20% of the aggregation mixture was set aside as the ‘total fraction’. The remaining sample was centrifuged at room temperature at 65 000 g for 1 h. The supernatant was collected as the ‘soluble fraction’ and transferred to a fresh tube. The pellet was resuspended in 80 μL of 1× PBS (pH 7.2) and centrifuged at 65 000 g for 1 h. After removing the supernatant, the pellet was resuspended in 8 μL of 1× PBS (pH 7.2), yielding a 10× concentrated ‘insoluble fraction’.
# Samples were dropped on glow‐discharged carbon‐coated copper grids and negatively stained with 2% uranyl acetate. Electron microscopy was performed on a Tecnai G2 F20 microscope (FEI Technologies, Hillsboro, OR, USA) with an Eagle 4K CCD camera (FEI Technologies) or a CM100 TWIN Transmission Electron Microscope (Philips, Amsterdam, Netherlands) equipped with a side‐mounted Veleta Camera (Olympus, Tokyo, Japan) and processed in the iTEM software suite (Olympus). After bringing the images to 2048 × 2048 pixels, the pixel size at the specimen level was 1.14 nm. Approximately 20 micrographs of each specimen were recorded and evaluated.
# The samples were mixed with 2× Laemmli buffer [62.5 mM Tris/HCl (pH 6.8), 25% (w/v) glycerol, 2% SDS, and 0.01% Bromophenol Blue, supplemented with 5% (v/v) 2‐mercaptoethanol] and boiled at 95 °C for 5 min. The samples were then subjected to electrophoresis using Mini‐PROTEAN TGX 4–20% Precast gels (Bio‐Rad, Hercules, CA, USA, Cat. # 4561095) in Tris/glycine/SDS running buffer (Bio‐Rad). […]
# [2] = Self-aggregation of inhibitor peptides alone (ThT, SEM); type: physicochemical; conditions: Fig. S8
# Procedure: NAC peptides stored at −80 °C were thawed on ice and centrifuged at 12 100 g for 45 s. A reaction mixture (40 μL) was prepared on ice containing 100 μM NAC peptide, either alone or in combination with inhibitor peptides at a 1 : 2 molar ratio, along with 15 μM ThT (Sigma‐Aldrich, Burlington, MA, USA; Cat. # T3516‐5G) in 1× PBS (pH 7.2). This mixture was then dispensed into a clear‐bottom, black 384‐well plate (Revvity, Waltham, MA, USA), and the plate was sealed with a TopSealA‐PLUS (Revvity) to prevent evaporation.
# The aggregation kinetics was monitored on an EnSpire Multimode Plate Reader (Revvity) at 37 °C with a constant agitation of 1000 rpm. To prevent condensation in the assay plate, the upper heater temperature in the plate reader was set to 2 °C higher than the lower heater temperature. ThT (Ex: 460–490 nm, Em: 500–550 nm) fluorescence readings were recorded every 5–10 min for 48–72 h. The aggregation lag time was determined by fitting a Boltzmann sigmoidal equation to the fluorescence data in OriginPro 2024 (OriginLab Corporation, Northampton, MA, USA).
# NAC peptides aggregated in the absence or presence of inhibitor peptides, as described in the section Aggregation Kinetics, were collected and pooled into Eppendorf tubes. Approximately 2 μL of each sample was drop‐cast onto a silicon wafer and air‐dried at room temperature. […]
substance,measurement,setting,value
KISVRV,effect on preformed αSyn oligomers,αSyn,dissolve preformed oligomers
same,effect on αSyn fibril formation,αSyn,inhibit αSyn fibril formation
KISVRVRRRRRR [PB],"reduction of seed competency of αSyn fibrils, ranking","[1]; 72 h, Fig. 5C,D",most effective
KISVRVRRRRRR [PD],CFP/YFP inclusions in cells transduced with αSyn fibrils formed with inhibitor,"[1]; αSyn : peptide 1 : 2 for 72 h, n = 3",reduced inclusions
same,inhibition of αSyn aggregation (ThT kinetics),"recombinant αSyn; αSyn : peptide 1 : 2 molar ratio (100–150 μM : 200–300 μM), 50 μM ThT, 37 °C, 850 rpm, 72 h, n = 3",highly effective in inhibiting αSyn aggregation
VSRKIVRRRRR [PS],self-aggregation (ThT kinetics of peptide alone),[2],no signs of self‐aggregation
same,final ThT reading normalized to control (amyloid fibrils formed),"recombinant αSyn; αSyn : peptide 1 : 2, end of aggregation assay, n = 3 (PS n = 2)",increase in αSyn aggregation
same,αSyn fibrils by TEM,recombinant αSyn; αSyn aggregated with peptide at 1 : 2,fibril morphology was unaffected
